Results from patent US12446583B2, “Methods of pest control in soybean” (SYNGENTA CROP PROTECTION AG, priority 2012, dated 2025).

Test system: Euschistus heros
Experiment: Euschistus heros (Neotropical Brown Stink Bug) contact/feeding activity on sprayed soybean plants
Assay type: in vivo
Details: for mortality at 50 ppm: 120 h, read-out: control (mortality and growth effects)
Procedure: Euschistus heros (Neotropical Brown Stink Bug) (Contact/Feeding Activity)
2 week old soybean plants are sprayed in a turn table spray chamber with the diluted spray solutions. After drying, 2 soybean seeds are added and plants are infested with 10 N-2 nymphs of the neotropical brown stink bug Euschistus heros in plastic test boxes. Boxes are incubated in a climate chamber at 25° C. and 60% RH. Evaluation is done 5 days after infestation on mortality and growth effects.
Compounds are tested according to the above method.

CCN1OCC(NC(=O)c2ccc(C3=NOC(c4cc(Cl)cc(Cl)c4)(C(F)(F)F)C3)cc2Br)C1=O (stereo not shown) [Compound A2]
mortality at 50 ppm: ≥ 80%

CCN1OCC(NC(=O)c2ccc(C3=NOC(c4cc(Cl)c(Cl)c(Cl)c4)(C(F)(F)F)C3)cc2Br)C1=O (stereo not shown) [Compound A3]
mortality at 50 ppm: ≥ 80%

CCN1OCC(NC(=O)c2ccc(C3=NOC(c4cc(Cl)c(Cl)c(Cl)c4)(C(F)(F)F)C3)cc2C(F)(F)F)C1=O (stereo not shown) [Compound A5]
mortality at 50 ppm: ≥ 80%

CCN1OCC(NC(=O)c2ccc(C3=NOC(c4cc(Cl)c(Cl)c(Cl)c4)(C(F)(F)F)C3)cc2Cl)C1=O (stereo not shown) [Compound A1]
mortality at 50 ppm: ≥ 80%

Cc1cc(C2=NOC(c3cc(Cl)cc(Cl)c3)(C(F)(F)F)C2)ccc1C(=O)N[C@@H]1CON(Cc2ccccc2)C1=O (stereo partly shown) [Reference compound, reference compound]
Control/% (application rate 0.8 ppm): 0% | Control/% (application rate 3 ppm): 35% | Control/% (application rate 12.5 ppm): 90%

CCN1OCC(NC(=O)c2ccc(C3=NOC(c4cc(Cl)cc(Cl)c4)(C(F)(F)F)C3)cc2C(F)(F)F)C1=O (stereo not shown) [Compound A4]
mortality at 50 ppm: ≥ 80%

Cc1cc(C2=NOC(c3cc(Cl)cc(Cl)c3)(C(F)(F)F)C2)ccc1C(=O)NC1CON(C)C1=O (stereo not shown) [Compound A15]
mortality at 50 ppm: ≥ 80%

CCN1OCC(NC(=O)c2ccc(C3=NOC(c4cc(Cl)cc(Cl)c4)(C(F)(F)F)C3)cc2C)C1=O (stereo not shown) [Compound A17]
mortality at 50 ppm: ≥ 80%

Cc1cc(C2=NOC(c3cc(Cl)cc(Cl)c3)(C(F)(F)F)C2)ccc1C(=O)N[C@@H]1CON(CC(F)(F)F)C1=O (stereo partly shown) [Compound of the invention]
Control/% (application rate 0.8 ppm): 15% | Control/% (application rate 3 ppm): 85% | Control/% (application rate 12.5 ppm): 100%
